According to patent publication US9770026B2, “Substituted pyrimidine compound and uses thereof” (Shenyang Sinochem Agrochemicals R&D Co., Ltd., priority 2012, dated 2017):

Key:
[1] = system: carmine spider mite; assay: bioactivity test against carmine spider mite, airbrush spray; format: in vivo; details: mortality after 72 hrs
Outline: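 Broadbean seedlings infested with adult mites were sprayed with compound (acetone/methanol stock diluted in 0.1% Tween 80 water) by airbrush at 0.7 kg/cm^2, 0.5 ml. Three replicates were run. Mortality was scored after 72 hrs.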

[2] = system: Green peach aphids (Myzus Persicae Sulzer); assay: bioactivity test against green peach aphid, airbrush foliar spray; format: in vivo; details: for Insecticidal activity against peach aphid (%): contrastive test; for control (test results against green peach aphid): death rate after 48 hrs
Outline: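 Death rate was scored at 48 hrs, held at 25±1 C and 60±5% RH, following airbrush foliar spray (0.5 mL, 10 psi) onto cabbage leaf discs bearing about 15-30 aphids. Test solutions: compound dissolved in 1:1 acetone:methanol, brought to concentration with 0.1% tween 80 water.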

[3] = system: armyworm; assay: bioactivity test against armyworm, airbrush spray; format: in vivo; details: 600 ppm, mortality after 72 h
[4] = system: Diamond back moth; assay: insecticidal activity against diamond back moth, airbrush spray; format: in vivo; details: 600 ppm, mortality after 72 hrs
Outline: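 Airbrush leaf-disc spray test: both faces of 2 cm cabbage discs received 0.5 ml of test solution at 0.7 kg/cm^2. Solutions were made in acetone:methanol (1:1) and brought to concentration with 0.1% Tween 80 in water. Ten second-instar larvae per disc, triplicates, were held at 25° C and 60˜70% R.H., with mortality recorded at 72 hrs.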

[5] = system: cucumber downy mildew; assay: protectant activity in vivo against cucumber downy mildew; details: for control effect against cucumber downy mildew (%): protectant activity
[6] = system: wheat powdery mildew; assay: protectant activity in vivo against wheat powdery mildew; details: for protectant activity against wheat powdery mildew in vivo: 400 ppm; for control effect against wheat powdery mildew (%): protectant activity
[7] = system: corn rust; assay: protectant activity in vivo against corn rust; details: 400 ppm

SMILES: CCc1ncnc(NCCc2ccc(Oc3ccc(Cl)cc3)c(OC)c2)c1Cl [II-1965]
- control against carmine spider mite ([1]; 100 ppm): 100%
- control against carmine spider mite ([1]; 600 ppm): 100%
- Insecticidal activity against peach aphid (%) ([2]; 10 mg/L): 100%
- Insecticidal activity against peach aphid (%) ([2]; 100 mg/L): 100%
- Insecticidal activity against peach aphid (%) ([2]; 600 mg/L): 100%
- control (test results against green peach aphid) ([2]; 10 ppm): 100%
- control (test results against green peach aphid) ([2]; 100 ppm): 100%
- control (test results against green peach aphid) ([2]; 600 ppm): 100%
- control (test results against armyworm) [3]: 100%
- control (test results against diamond back moth) [4]: 100%
- protectant activity against cucumber downy mildew in vivo ([5]; 400 ppm): 100%
- protectant activity against wheat powdery mildew in vivo [6]: 100%
- protectant activity against corn rust in vivo [7]: 100%

SMILES: Cc1ncnc(NCCc2ccc(Oc3ccccc3)nc2)c1Cl [III-1]
- control against carmine spider mite ([1]; 600 ppm): 100%
- control (test results against green peach aphid) ([2]; 600 ppm): 100%
- control (test results against armyworm) [3]: 100%
- control (test results against diamond back moth) [4]: 100%
- control effect against cucumber downy mildew (%) ([5]; 12.5 mg/L): 100%
- control effect against cucumber downy mildew (%) ([5]; 25 mg/L): 100%
- control effect against cucumber downy mildew (%) ([5]; 50 mg/L): 100%
- control effect against cucumber downy mildew (%) ([5]; 100 mg/L): 100%
- control effect against cucumber downy mildew (%) ([5]; 400 mg/L): 100%
- protectant activity against cucumber downy mildew in vivo ([5]; 12.5 ppm): 100%
- protectant activity against cucumber downy mildew in vivo ([5]; 25 ppm): 100%
- protectant activity against cucumber downy mildew in vivo ([5]; 50 ppm): 100%
- protectant activity against cucumber downy mildew in vivo ([5]; 100 ppm): 100%
- protectant activity against cucumber downy mildew in vivo ([5]; 400 ppm): 100%
- control effect against wheat powdery mildew (%) ([6]; 6.25 mg/L): 98%
- control effect against wheat powdery mildew (%) ([6]; 25 mg/L): 98%
- control effect against wheat powdery mildew (%) ([6]; 100 mg/L): 98%
- control effect against wheat powdery mildew (%) ([6]; 400 mg/L): 100%
- protectant activity against wheat powdery mildew in vivo [6]: 100%
- protectant activity against corn rust in vivo [7]: 100%
